Assay results from patent US20100113363A1, “Use of GLP-1 Peptides” (Novo Nordisk A/S, priority 1996, published 2010).
Like-named read-outs stand apart in the source and are kept apart here. No end group written: not given here.

Key:
[1] = rats, Tang-Christensen et al., cited from earlier work
[2] = Appetite suppression in mice: sucrose consumption, tested immediately after intraperitoneal injection; type: in vivo; conditions: 85 micrograms (3.4 mg/kg) intraperitoneally, 10 minute period, p-value 0.002
Procedure: Mice were deprived of their normal food for two days and given free access to a 20% sucrose solution on the first day of food deprivation. After the two day food deprivation period, the mice were injected intraperitoneally with 0.5ml of a solution containing the test substance. Immediately after injection, individual mice were placed in one of eight 15 cm square test boxes with a stainless steel grid floor and a glass drinking tube which projected into the box. […] Consumption of the sucrose solution was measured over a 10 minute period by electronically recording the total amount of contact with the sucrose solution during the test session. The degree of appetite suppression produced by a given test substance was determined by statistical comparison of the mean duration of sucrose consumption by control (vehicle treated) mice with that of mice treated with a test substance. The degree of appetite suppression in a treated group of mice was expressed as percent difference between the test and control group's response duration means. […]

[3] = iv infusion of GLP-1(7-36)amide in healthy human volunteers: visual analogue scale ratings and ad libitum lunch energy intake; type: in vivo; conditions: iv infusion 50 pmol/(kg·h)
From the text: Healthy human volunteers (20 subjects) were in a double-blind crossover trial given an iv infusion of 50 pmol/(kg·h) of GLP-1(7-36)amide or saline on separate, but otherwise identical experimental days. The infusion was started at 9.00 and lasted until 15.00. At 9.45 the subjects received a fixed amount of breakfast and at 14.15 they had lunch of an identical composition but ad libitum. The subjects rated their feeling of satiety, hunger, fullness and appetite on a visual analogue scale every half hour. The results are given below:
The energy intake of each subjects was measured. The intakes were 3.9 MJ with GLP-1 and 4.3 MJ with Saline resulting in a p-value of 0.009.

[4] = rats, Turton et al., cited from earlier work
[5] = Suppression of appetite in mice by subcutaneously injected synthetic GLP-1(7-36)amide: Complan consumption; type: in vivo; conditions: p<0.001
Procedure: The test method was as described in Example 3 except that the mice were pre-exposed to formula milk (Complan®—a nutritionally complete infant milk substitute) for one day, then fasted […]. On the test day, consumption of Complan® was measured for each mouse during a 10 min period.
Mice were tested for appetite suppression by subcutaneous injection of GLP-1(7-36)amide dissolved in phosphate buffered saline.

[6] = administered intracerebroventricularly

Substance | effect on food intake ([1]; route not stated) | suppression of sucrose consumption [2] [%] | effect on food intake [1, 6] | effect on food intake ([1]; peripherally administered) | energy intake ([3]; ad libitum lunch, saline 4.3 MJ, p-value 0.009) [mJ] | Satiety (visual analogue scale) ([3]; versus saline, p = 0.006) | Appetite (visual analogue scale) ([3]; versus saline, p = 0.007) | Hunger (visual analogue scale) ([3]; versus saline, p = 0.007) | Fullness (visual analogue scale) ([3]; versus saline, p = 0.010) | effect on food intake [4, 6] | effect on food intake ([4]; peripheral administration) | suppression of feeding ([5]; 1 mg/kg subcutaneous, 30 min after injection) [%] | maximum effect, suppression of feeding ([5]; 20 mg/kg subcutaneous (highest dose tested)) [%]
GLP-1(1-36)amide (HDEFERHAEGTFTSDVSSYLEGQAAKEFIAWLVKGR-NH2; UniProt P01275 92-127, looked up, fragment) [fragment 1-36 of GLP-1, C-terminal amide] | no effect |  |  |  |  |  |  |  |  |  |  |  | 
GLP-1(7-36)amide |  | 60 | profound effect | no significant effect | 3.9 | GLP-1 > Saline, p = 0.006 | GLP-1 < Saline, p = 0.007 | GLP-1 < Saline, p = 0.007 | GLP-1 > Saline, p = 0.010 | profound effect | inactive | 45 | 60
